In patent US20110275685A1, “SALT AND POLYMORPHS OF A KINESIN INHIBITOR COMPOUND” (priority 2009, published 2011):
Where a name gives a salt, the structure may show the parent alone. Read-outs that look alike come from different tables or passages of the source.

Columns and labels:
[1] = Weight loss on drying by thermogravimetry (hygroscopicity); type: physicochemical; details: for hygroscopicity: judged from weight loss as prepared vs 1 day at 92% relative humidity
Source text: The weight loss (%) on drying, measured by thermogravimetry, of the salt as prepared was 1.12%. If kept for 1 day at 92% relative humidity, the weight loss was 1.71%.
The weight loss (%) on drying, measured by thermogravimetry, of the salt as prepared was 2.08%. If kept for 1 day at 92% relative humidity, the weight loss was 2.21%.
The weight loss (%) on drying, measured by thermogravimetry, of the salt as prepared was 1.76%. If kept for 1 day at 92% relative humidity, the weight loss was 2.14%.

[2] = Solid state stability of the salts (HPLC, colour); details: Bulk (HPLC)
Source text: Tests for solid state stability were made for the mesylate, tosylate and hippurate salts as prepared above.

[3] = Stability of liquid formulations of the salts; details: for stability in DMSO: either diluted or not
Procedure: From the mesylate, tosylate and hippurate salts as prepared above, liquid formulations were prepared by dissolving/suspending these salts in a solvent/suspension medium. Stability tests were made on these liquid formulations. The amount of degradation products and the degree of discoloration were established.

[4] = Solubility of the obtained material; type: physicochemical; details: thermodynamic from solid
Procedure: 2.40 g of amorphous N-((S)-3-amino-4-fluorobutyl)-N-((R)-1-(1-benzlyl-4-(2,5-difluoro-phenyl)-1H-imidazol-2-yl)-2,2-dimethylpropyl)-2-hydroxyacetamide were dissolved at 50° C. in 9 ml acetonitrile/water 95:5 v/v having a water activity of 0.6, and stirred. Within about 1 minute, a suspension was formed. Another 6 ml of acetonitrile/water 95:5 v/v were added. Subsequently, the suspension was cooled to room temperature in about 1 hour and stirred for 14 hours. Then, the suspension was filtered and air dried for about 5 minutes. Yield: 1.82 g (75%). The obtained material was analyzed by X-ray diffraction (FIG. 1).

[5] = 2 weeks, 50° C., tight container
[6] = Xenon light (approx. 1200 kLuxh)
[7] = 0.1% solutions or suspensions, 1 week, 50° C., Methanol
[8] = 0.1% solutions or suspensions, 1 week, 50° C., pH 3
[9] = 0.1% solutions or suspensions, 1 week, 50° C., pH 4.5
[10] = 0.1% solutions or suspensions, 1 week, 50° C., pH 5
[11] = 0.1% solutions or suspensions, 1 week, 50° C., pH 7
[12] = 2% solutions or suspensions, 1 day, room temperature, DMSO
[13] = 2% solutions or suspensions, 1 day, room temperature, Dilution pH 6.8 (diluted with buffer 1:100)
[14] = 5% solutions, 1 day, room temperature, DMSO
[15] = 5% solutions, 1 day, room temperature, Dilution pH 6.8

hygroscopicity [1] | Amount of degradation products [%] ([2]; 2 weeks, 50° C., 75% r.h.) | Amount of degradation products [%] [2, 5] [%] | Amount of degradation products [%] [2, 6] [%] | Amount of degradation products [%] [3, 7] [%] | Amount of degradation products [%] [3, 8] [%] | Amount of degradation products [%] [3, 9] [%] | Amount of degradation products [%] [3, 10] [%] | Amount of degradation products [%] [3, 11] [%] | Amount of degradation products [%] [3, 12] [%] | Amount of degradation products [%] [3, 13] [%] | Amount of degradation products [%] [3, 14] [%] | Amount of degradation products [%] [3, 15] [%] | stability in DMSO [3] | SMILES | further results
low hygroscopicity | 1.02 | 0.79 | 0.43 | 11.81 | 0.48 | 1.03 | 1.80 | 5.32 | 0.78 | 0.82 | 0.94 | 0.84 | very stable | CC(C)(C)[C@H](c1nc(-c2cc(F)ccc2F)cn1Cc1ccccc1)N(CC[C@H](N)CF)C(=O)CO [Hippurate, N-((S)-3-amino-4-fluorobutyl)-N-((R)-1-(1-benzlyl-4-(2,5-difluorophenyl)-1H-imidazol-2-yl)-2,2-dimethylpropyl)-2-hydroxyacetamide] | weight loss (%) on drying, measured by thermogravimetry ([1]; kept for 1 day at 92% relative humidity, listed as hippurate salt): 2.14%; weight loss (%) on drying, measured by thermogravimetry ([1]; salt as prepared, listed as hippurate salt): 1.76%
low hygroscopicity | <0.05 | 0.07 | <0.05 | 0.21 | 0.25 | 0.69 | 0.71 | 3.87 | 0.07 | 0.19 | <0.05 | 0.30 | very stable | CC(C)(C)[C@H](c1nc(-c2cc(F)ccc2F)cn1Cc1ccccc1)N(CC[C@H](N)CF)C(=O)CO [Mesylate, N-((S)-3-amino-4-fluorobutyl)-N-((R)-1-(1-benzlyl-4-(2,5-difluorophenyl)-1H-imidazol-2-yl)-2,2-dimethylpropyl)-2-hydroxyacetamide] | weight loss (%) on drying, measured by thermogravimetry ([1]; kept for 1 day at 92% relative humidity, listed as mesylate salt): 2.21%; weight loss (%) on drying, measured by thermogravimetry ([1]; salt as prepared, listed as mesylate salt): 2.08%; stability in methanol ([3]; in methanol): very stable
low hygroscopicity |  |  |  |  |  |  |  |  |  |  |  |  |  | CC(C)(C)[C@H](c1nc(-c2cc(F)ccc2F)cn1Cc1ccccc1)N(CC[C@H](N)CF)C(=O)CO [Tosylate, N-((S)-3-amino-4-fluorobutyl)-N-((R)-1-(1-benzlyl-4-(2,5-difluorophenyl)-1H-imidazol-2-yl)-2,2-dimethylpropyl)-2-hydroxyacetamide] | Amount of degradation products [%] (1 week, 0.1 %): 0.35%; Amount of degradation products [%] (1 week, 0.1 %, pH 3): 0.27%; Amount of degradation products [%] (1 week, 0.1 %, pH 4.5): 0.59%; Amount of degradation products [%] (1 week, 0.1 %, pH 5): 1.81%; Amount of degradation products [%] (1 week, 0.1 %, pH 7): 7.60%; Amount of degradation products [%] (1 day, 0.02 %, pH 6.8): 0.33%; Amount of degradation products [%] (1 day, 2 %): 0.14%; Amount of degradation products [%] (1 day, 5 %): 0.15%; Amount of degradation products [%] (1 day, pH 6.8): 0.11%; weight loss (%) on drying, measured by thermogravimetry ([1]; kept for 1 day at 92% relative humidity, listed as tosylate salt): 1.71%; weight loss (%) on drying, measured by thermogravimetry ([1]; salt as prepared, listed as tosylate salt): 1.12%
 |  |  |  |  |  |  |  |  |  |  |  |  |  | CC(C)(C)[C@H](c1nc(-c2cc(F)ccc2F)cn1Cc1ccccc1)N(CC[C@H](N)CF)C(=O)CO [crystalline form D, N-((S)-3-amino-4-fluorobutyl)-N-((R)-1-(1-benzlyl-4-(2,5-difluorophenyl)-1H-imidazol-2-yl)-2,2-dimethylpropyl)-2-hydroxyacetamide mesylate] | solubility ([4]; 0.1 N HCl, pH 1, simulated gastric fluid, read-out: solubility in 0.1 N HCl): 1400 µg/mL; solubility ([4]; buffer pH 6.8, pH 6.8, aqueous buffer, read-out: solubility in buffer with pH 6.8): 10 µg/mL; solubility ([4]; water, read-out: solubility in water): 4400 µg/mL
